Consider 7 compounds from patent publication US20170247645A1, “ENCAPSULATED FRAGRANCE MIXTURES” (Symrise AG, priority 2014, published 2017).

Structures are written as SMILES.

Data set [1] is described as follows: Odor threshold value (OTV) in air. The source says:
The odor threshold is the threshold at which a fragrance or odorant is olfactorily perceived by an organism. The odor threshold value, OTV for short, is that minimum concentration of a particular gaseous, sensorily active substance in the surrounding medium that this lifeform is just able to perceive through its sense of smell. In the present invention, preference is given to fragrances having a (very) low odor threshold value. The lower this is, the lower the concentration at which the fragrance is then perceived.

A short description of data set [2]: log Kow (octanol/water partition coefficient). The class given is physicochemical. The note with it: 1-octanol/water. From the text: In a further preferred embodiment, the individual fragrances of the fragrance mixture of the invention have a log Kow value of 1 to 10, preferably of 1.5 to 8, more preferably of 2 to 5.5.
The log Kow (octanol/water partition coefficient) is a measure of the lipophilicity of a substance. In terms of calculation, it is the partition coefficient Kow of a substance in a mixture of 1-octanol and water. Kow is greater than one when a substance has better solubility in fat-like solvents such as n-octanol, and less than one when it has better solubility in water. Correspondingly, log Kow is positive for lipophilic substances and negative for hydrophilic substances.

In turn, `CC(C)=C[C@H]1C[C@@H](C)CCO1` [Example 1, Rose oxide] returned an OTV in data set [1] of 0.5 ppm. The “log Kow” value in data set [2] came out at 3.58. On the same counts, the results for `CCOC(=O)[C@H]1O[C@@]1(C)c1ccccc1` [Example 2, Aldehyde C16] are 0.2 ppm and 3. `CC(C)=CCC[C@@H](C)CC#N` [Example 3, citronellylnitrile] yielded an OTV in data set [1] of 1 ppm. The “log Kow” value in data set [2] stood at 3.55. For `CC(C)=CCCC1=CC[C@](C)(C=O)CC1` [Example 6, Pre-cyclemone B], in that order: 0.5 ppm and 5.19.

Compound `C=CCOC(=O)COCCC(C)C` [Example 7, Allyl amyl glycolate] yielded an OTV in data set [1] of 0.1 ppm. The compound `COc1nccnc1CC(C)C` [Example 9, 2-Isobutyl-3-methoxypyrazine] had an OTV in data set [1] of 0.1 ppm. Also, the “log Kow” value in data set [2] was 2.86. `CCCCC/C=C\CCC=O` [Example 10, cis-4-Decenal] gave an OTV in data set [1] of 0.2 ppm. Further, in data set [2], the “log Kow” value amounted to 3.55.
